Each structure is given as a SMILES string. Structures can show the parent of a compound that is named as a salt.

One test has as its target T1, human 5-lipoxygenase (Homo sapiens, UniProt P09917).
T1 construct: cytosol fraction of polymorphonuclear leukocytes prepared from human peripheral blood; endogenous in cells; host or cells: polymorphonuclear leukocytes from human peripheral blood (cytosol fraction)
T1 sequence (P09917 1-674): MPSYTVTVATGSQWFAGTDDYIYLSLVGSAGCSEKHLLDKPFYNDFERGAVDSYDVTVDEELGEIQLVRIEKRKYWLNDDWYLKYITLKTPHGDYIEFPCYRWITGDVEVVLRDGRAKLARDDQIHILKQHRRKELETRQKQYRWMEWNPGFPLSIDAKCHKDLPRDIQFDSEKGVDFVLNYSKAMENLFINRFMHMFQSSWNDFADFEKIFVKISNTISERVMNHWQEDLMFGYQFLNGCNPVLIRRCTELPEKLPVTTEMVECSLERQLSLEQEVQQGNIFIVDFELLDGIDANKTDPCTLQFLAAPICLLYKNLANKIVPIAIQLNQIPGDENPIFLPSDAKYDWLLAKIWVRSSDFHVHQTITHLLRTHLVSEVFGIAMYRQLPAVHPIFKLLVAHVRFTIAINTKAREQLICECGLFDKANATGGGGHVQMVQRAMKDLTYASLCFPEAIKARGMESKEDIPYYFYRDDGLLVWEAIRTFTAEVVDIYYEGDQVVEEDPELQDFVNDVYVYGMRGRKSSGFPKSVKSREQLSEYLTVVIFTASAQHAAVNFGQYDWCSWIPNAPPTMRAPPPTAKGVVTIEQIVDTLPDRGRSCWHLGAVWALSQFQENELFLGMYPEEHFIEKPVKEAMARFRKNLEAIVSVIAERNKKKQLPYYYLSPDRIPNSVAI
As to the kind of experiment: Effect on human 5-lipoxygenase activity (cytosol fraction of polymorphonuclear leukocytes). It is filed as biochemical. The following applies: human PMN leukocyte cytosol fraction; 14C-arachidonic acid; 30° C., 1 min, pH 7.4. On the procedure:
i) Effect on human 5-lipoxygenase activity
The assay mixture consisted of 85 μl of potassium/phosphate buffer (pH 7.4) containing 1.18 mM of calcium ion, 5 μl of cytosol fraction of polymorphonuclear leukocytes prepared from human peripheral blood and 5 μl of test compound. The reaction was initiated by the addition of 5 μl of 1 mM ^14 C-arachidonic acid after 5 min equilibration period. The incubation was carried out at 30° C. for 1 min and terminated by the addition of 300 μl of a ice-cold mixture of diethyl ether/methanol/1M citric acid (30/4/1). The mixture was mixed vigorously and centrifuged at 1700 G for 2 min at 4° C. The resultant organic layer was treated with sodium borohydride, kept cold for more than 10 min and then evaporated to dryness under gentle stream of nitrogen. After 200 μl of a mixture of diethyl ether/methanol (30/4) was added to the test tube, the contents were extracted by the addition of 100 μl of 1M citric acid followed by centrifugation (1700 G for 2 min at 4° C.). The products in the upper layer were chromatographed on silica gel thin-layer with a solvent system of diethyl ether/petroleum ether/acetic acid (85/15/0.01) and autoradiographed on X-ray film. The arachidonic acid metabolites and residual substrate were quantified by chromatoscanner. The 5-lipoxygenase activity was calculated by subtracting the conversion rate of total radioactivity into 15-hydroxy eicosatetraenoic acid from total radioactivity. The effect of compounds tested were expressed as percentage inhibition against 5-lipoxygenase activity in the vehicle (50% ethanol solution)-treated group.

Test [1] deals with T2, human thromboxane A2 synthetase (Homo sapiens, UniProt P24557).
T2 construct: Washed platelet was prepared from citrate-treated [1/9 (v/v)] human peripheral blood; endogenous in cells; host or cells: washed platelets from human peripheral blood
T2 sequence (P24557 1-533): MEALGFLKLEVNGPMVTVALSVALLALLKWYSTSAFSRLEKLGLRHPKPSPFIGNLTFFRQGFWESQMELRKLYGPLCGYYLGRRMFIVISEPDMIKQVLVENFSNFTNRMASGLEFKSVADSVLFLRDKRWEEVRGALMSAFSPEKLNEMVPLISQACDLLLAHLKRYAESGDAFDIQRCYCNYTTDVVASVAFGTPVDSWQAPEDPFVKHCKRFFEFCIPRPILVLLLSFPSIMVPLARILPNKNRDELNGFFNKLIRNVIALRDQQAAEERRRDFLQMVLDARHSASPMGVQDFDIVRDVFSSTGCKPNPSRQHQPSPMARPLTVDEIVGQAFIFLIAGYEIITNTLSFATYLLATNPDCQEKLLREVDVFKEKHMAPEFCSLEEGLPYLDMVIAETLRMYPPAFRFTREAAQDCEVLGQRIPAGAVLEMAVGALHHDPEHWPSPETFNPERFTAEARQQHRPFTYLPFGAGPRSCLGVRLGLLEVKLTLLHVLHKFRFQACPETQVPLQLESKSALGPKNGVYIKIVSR
In words: Effect on human thromboxane A2 synthetase activity (washed platelets). The format is cell-based. The following applies: conversion of 14C-arachidonic acid into TXB2, 37° C., 2 min. On the procedure:
ii) Effect on human thromboxane A2 synthetase activity
Washed platelet was prepared from citrate-treated [1/9 (v/v)] human peripheral blood and suspended in Ca^++ -free Krebs-Henseleit solution (pH 7.4) at a concentration of 10.8×10^7 cells/mi. The assay mixture contained 185 μl of cell suspension, 5 μl of test compound and 10 μl of 100 μM ^14 C-arachidonic acid. Before the reaction was started by the addition of ^14 C-arachidonic acid, the other components were equilibrated for 2 min at 37 ° C. The incubation was carried out at 37° C. for 2 min and terminated by the addition of 300 μl of a mixture of diethyl ether/methanol/1M citric acid (30/4/1). The contents were mixed and then centrifuged for 2 min at 1700 G at 4° C. The products in the resultant organic layer were chromatographed on silica gel thin-layer using a solvent system of a mixture of ethyl acetate/isooctane/acetic acid/H2 O (110/50/20/100) and then autoradiographed on X-ray film. The arachidonic acid metabolites and residual substrate were quantified by chromatoscanner. TXA2 synthetase activity was expressed as the conversion rate of total radioactivity into thromboxane B2 (TXB2), a stable metabolite of TXA2. The effects of compounds tested were expressed as percentage inhibition against the conversion rate of total radioactivity into TXB2 in vehicle (50% ethanol solution)-treated group.

Test [2] has as its system lipid peroxides (TBARS) in rat liver homogenate. As to the kind of experiment: Antioxidant action (lipid peroxides as TBARS in rat liver homogenate). The format is biochemical, Sprague-Dawley rat. The following applies: FeCl2-initiated, 1 hr at 37° C. On the procedure:
Male Sprague-Dawley rat fasted overnight was anesthetized with diethyl ether, and liver was perfused, isolated and homogenized with 1.15% KCl (10% homogenate). The assay mixture contained 200 μl of liver homogenate, 5 μl of test compound and 10 μl of 4.4 mM FeCl2. The reaction was initiated by the addition of FeCl2, and the incubation was carried out for 1 hr at 37° C. The amounts of lipid peroxides produced during this incubation period were determined as thiobarbituric acid reactive substances (TBARS) according to the method described by OHKAWA et. al. (Analytical Biochemistry, 95, 351-358, 1979). The effects of compounds tested were expressed as percentage inhibition against the amounts of TBARS produced in vehicle (50% ethanol solution)-treated group.

The subject of test [3] is leukotriene B4 (LTB4) production from human whole blood. As to the kind of experiment: Effect on leukotriene B4 (LTB4) production from human whole blood. The format is cell-based. As to conditions: Ca ionophore A23187 stimulated, plasma LTB4 by EIA. On the procedure: (§1) iii) Effect on leukotriene B4 (LTB4) and TXB2 production from human whole blood […] The incubation was carried out for 5 min and terminated by centrifugation (12,000 rpm for 1-2 min). Resultant plasma was stocked at -70° C. until determination of the levels of LTB4 and TXB2. Plasma levels of LTB4 and TXB2 were determined by commercially available EIA kits (Cayman Chemical Company) following partial purification. The effect of compound tested was expressed as percentage inhibition against the amounts of LTB4 and TXB2 generated in vehicle (50% ethanol solution)-treated group.

Test [4] has as its system TXB2 production from human whole blood. As to the kind of experiment: Effect on TXB2 production from human whole blood. It is filed as cell-based. As to conditions: Ca ionophore A23187 stimulated, plasma TXB2 by EIA. On the procedure: as §1

As a reminder, the IC50 is the concentration that gives 50% inhibition. A high value points to lower potency. Take `CC1(C)CCc2c(Cn3ccnc3)c(O)c3ccccc3c2O1` [4(e)]: the half-maximal inhibitory concentration (IC50) at human 5-lipoxygenase worked out at 690 nM; in test [1], 8600 nM; in test [2], 2.6 µM.
In general, inhibition refers to how much of the control response was suppressed. High values mean a response far below the control, low ones a response near the control. As to `COC(C)(C)Cc1c(O)c(C)c(CCn2ccnc2)c2c1CC(C)(C)O2` [Example 17], the inhibition at 10 µM in test [3] was 22%; in test [4], 36%.
Turning to `Cc1c(O)c(C)c2c(c1CCCOc1cccnc1)OC(C)(C)CC2` [Example 11], the IC50 amounted to 1100 nM on human 5-lipoxygenase, 550 nM in test [1] and 3.7 µM in test [2].
For the compound `Cc1c(O)c(CCCSc2ccccc2)c2c(c1CCn1ccnc1)OC(C)(C)C2` [2(v)], the inhibition at 10 µM turned out to be 61% in test [3] and 89% in test [4].
In the same order, the values of `Cc1c(O)c(C(C)C)c2c(c1CCn1ccnc1)OC(C)(C)C2` [Example 2, 5-Hydroxy-2,2,6-trimethyl-4-isopropyl-7(2-(1-imidazolyl)ethyl)-2,3-dihydrobenzofuran hydrochloride] are 74% and 92%.
As for `Cc1c(O)c(CCCn2ccnc2)cc2c1CC(C)(C)O2` [Example 13], the figures for the IC50 (against human 5-lipoxygenase; in test [1]) were 460 nM and 1000 nM, respectively.
In the case of `COCOc1c(C)c(CCCOc2cccnc2)c2c(c1C)CCC(C)(C)O2` [Example 10], the IC50 at human 5-lipoxygenase turned out to be 480 nM; in test [1] it was 1400 nM; in test [2], 4 µM.
For the compound `Cc1c(O)c(CC(C)C)c2c(c1CCn1ccnc1)OC1(CCCC1)C2` [2(x)], the inhibition at 10 µM in test [3] was determined as 70%; in test [4] it was 82%.
